The values below come from patent US7998474B2, “Methods for treating an inflammatory disease of the bowel” (Rowett Research Institute, priority 2001, dated 2011).

Marks after values point to notes of the source that are not given here.

In series [1] the test system is RelA [NF-κB p65]. The experiment in a line: Supershift EMSA on Caco-2 nuclear extracts. It counts as cell-based. The conditions noted are these: S. enteritidis, 2 hours, heat inactivation 70° C. 15 minutes. As to the method: Where indicated B. thetaiotaomicron was heat inactivated at 70° C. for 15 minutes prior to its addition to the Caco-2 cells.
Nuclear extracts were incubated with single stranded ^32P-labeled oligonucleotide probes containing consensus binding sequences for NF-κB (SEQ ID NO:1 5′-[…] -3′) or AP-1 (SEQ ID NO: 2 5′-[…] -3′), separated by electrophoresis and visualized by autoradiography. EMSA supershifts were performed using specific NF-κB subunit antibodies. Effects of B. thetaiotaomicron on NFκB and AP-1 signaling were determined by EMSA, western blotting (protein and phosphoprotein), promoter-specific reporter analysis and target gene expression (eg. fos and jun).

Series [2] in a line: Viability of the bacterium in jelly. The conditions noted are these: commercial jelly prepared under anaerobic conditions, set at 4° C. Here is the method: Ten ml of B. thetaiotaomicron culture was centrifuged (2000 g, 12 min), the pellet was washed with 0.05M phosphate buffered saline pH 7.2 and then resuspended in commercial jelly [10 ml, 37° C., prepared under anaerobic conditions]. The jelly was poured into a sterile petri dish under CO2 and allowed to set at 4° C. Approximately 1 hour later, the jelly was cut into weighed amounts (0.5 g, ˜10^8 CFU B. thetaiotaomicron) and fed to the rats. The bacterium remained viable for at least 6 hours under these conditions. However, usually all jelly was eaten within a few minutes of being placed in the cage.

Series [3] relates to Myeloperoxidase (MPO). Kind of series: Myeloperoxidase (MPO) activity in rat tissue. It counts as in vivo, Hooded Lister rats. The conditions noted are these: 6d post-infection, mean ± SD, n = 6. Here is the method: Tissue samples were homogenised (1:80 w/v) in ice-cold 5 mM potassium phosphate buffer pH 6.0 using a Janke-Kunkel Ultra-Turrax T25 tissue homogeniser at 20,000 rev min^−1 for 30 seconds and centrifuged (3000 g×30 min, 4° C.). The pellet (1:20 w/v) was sonicated (3×5 sec) in ice-cold 0.5M potassium phosphate pH 6.0 containing hexadecyltrimethyl-ammonium bromide (HETAB, 5 g/l) and ethylenediaminetetraacetic acid (EDTA, 3.72 g/1), left on ice for 30 min and centrifuged (3000 g×30 min, 4° C.) [Stucchi et al, 2000]. The supernatant was frozen until assayed. Myeloperoxidase (MPO) activity was determined by monitoring H2O2 dependent oxidation of 3,3′,5,5′-tetramethylbenzidine (TMB, Dynex Technologies, Ashford, UK) in 50 mM potassium phosphate buffer pH 6.0 (Zimmerman and Granger, 1990). Absorbance at 450 nm was measured after termination of the reaction with 0.18M H2SO4. Human myeloperoxidase (Calbiochem, UK) was used as a standard and values were expressed as MPO equivalents.

Series [4] concerns Immunoreactive MPO. Kind of series: Immunoreactive MPO in intestinal contents or faeces (competitive ELISA). It counts as in vivo, Hooded Lister rats. The conditions noted are these: during 6d post-infection, mean ± SD, n = 6. Here is the method: Immunoreactive MPO in intestinal contents or faeces was determined by a competitive ELISA method. Microtiter plates (Immulon 4, Dynex Technologies, Ashford, UK) were coated [10 ng/well] with human myeloperoxidase in 10 mM phosphate buffered saline pH 7.4 [PBS] overnight at 4° C. After washing [PBS containing Tween-20 (1 ml/l], plates were blocked with PBS containing bovine serum albumin (BSA, 10 g/l) for 1 hour at room temperature. Plates were washed and samples or standards added [50 μl/well] and serially diluted in PBS containing BSA (1 g/l), Tween-20 (1 ml/l) and leupeptin (1 mg/l). Rabbit anti-human myeloperoxidase antibody [Calbiochem, UK, 50 μl/well of 1:4000 dilution] was also added. The plates were incubated for 1 hour, washed and then reacted for 1 hour with biotinylated anti-rabbit IgG followed by Extravidin/peroxidase (EXTRA-3 kit, Sigma-Aldrich, Poole, UK). After washing, TMB reagent (7 μl/well) was added and incubated in the dark for up to 2 hours. The reaction was stopped by addition (50 μl/well) of 0.18M H2SO4 and the absorbance read at 450 nm. Values were expressed as immunoreactive MPO equivalents.

The subject of series [5] is IL-8. The experiment in a line: IL-8 protein in culture supernatants (ELISA). The conditions noted are these: co-culture with S. enteritidis over 4 h (S. enteritidis alone 400 pg/ml). Background: In an ELISA, binding on a coated surface is turned into a signal by an enzyme label.
Series [6] concerns human PMNs. Kind of series: Transepithelial migration of PMN through Caco-2 monolayer (MPO assay). To be noted: Caco-2 Transwell, S. enteritidis, MPO readout.

On to Bacteroides thetaiotaomicron [BT], for which the “RelA response (supershift EMSA)” value in series [1] is on record as “inhibited”. Moreover, the “Time the bacterium remained viable in jelly” value in series [2] is reported as “at least 6 hours”. In addition, in series [3], the “Ileum (20 cm) MPO” value is listed as 33.1 ± 6.2^a μg and the “Jejunum (20 cm) MPO” value came out at 29.3 ± 5.2 µg. Further, the “Faeces MPO” value in series [4] is reported as 2.6 ± 1.0^a μg/d. Besides, in series [5], the “IL-8 protein in culture supernatants” value is 230 pg/mL. For the same substance, in series [6], the “PMN recruitment in vitro” value was “confirmed the anti-inflammatory activity”.
